Tests used:
Format in all cases: cell-based, human
[1] = test system: EGFR-Tyr992; test: Western blot, inhibition of EGFR phosphorylation; settings: H1975 cells
Procedure: (§1) (1) Various cell lines in the logarithmic growth phase were evenly inoculated in a 6-well plate at a concentration of 3×10^6 cells/well, respectively, and cultured for 24 h;
(§2) (2) The culture supernatant was removed, and then the cells were washed twice with PBS, and treated with serum-free medium for 1 hour;
(§3) (3) The culture supernatant was removed, and each compound at different concentrations was added, then the cells were treated for 2 h;
(§4) (4) The supernatant was removed, and the cells were washed twice with pre-cooled PBS, then the supernatant was discarded;
(§5) (5) 100 μl of cell lysate was added to each well, and cells were lysed on ice for 10 min. The cells were scraped with a cell scraper. The cell lysate was transferred to a pre-cooled 1.5 ml EP tube, sonicated, and centrifuged under 12000 rpm at 4° C. for 10 min. The supernatant was carefully aspirated and stored at −20° C.
(§6) (6) To the aliquoted total cell protein, was added 5 μl of 5× loading buffer, and the protein was denatured in a water bath at 100° C. for 10 min, then the sample was centrifugated and loaded;
(1) The successfully transferred membrane was placed in the 1× blocking solution prepared, and kept in the blocking solution at room temperature for about 1 h; […]

[2] = test system: Akt; test: Western blot, inhibition of Akt phosphorylation
Procedure: as §1, §2, §3, §4, §5, §6
(1) The successfully transferred membrane was placed in the 1× blocking solution prepared, and kept in the blocking solution at room temperature for about 1 h;
(2) EGFR protein and its downstream proteins were diluted with 1× primary antibody diluent, and incubated overnight at 4° C., using […] antibody as an internal reference;
(3) The membrane was washed 3 times with 1×TBST, 5 min for each time, and then washed with 1× secondary antibody dilution, followed by incubation for 1 h at room temperature. Finally, the membrane was washed 3 times with 1×TBST, 15 min for each time.
(2) The mixed ECL reagent was added to PVDF membrane (1 ml/10 cm^2), and subjected to chemiluminescence to obtain a band;
Western Blot method was used to analyze the influence of each compound on the expression of pathway proteins.

[3] = test system: H1975 cells; test: Apoptosis, Annexin V-FITC/PI double staining, flow cytometry; settings: for Total apoptosis rate (%): 18 h (control 9.2)
Procedure: (§7) Apoptosis was detected by Annexin V-FITC/PI double staining method. A variety of different cells in the logarithmic growth phase were inoculated evenly in a 6-well plate at a concentration of 1×10^6 cells/well, 2 ml for each well, and then incubated overnight. Then, different compounds were added, and each compound was set different concentrations. After 18 h, the cells were collected with 0.25% trypsin without EDTA and washed twice with PBS solution. Then, the cells were stained by the apoptosis detection kit according to the instructions, and analyzed by flow cytometry.
(§8) In the experiment, human lung cancer cells HCC827 cells and H1975 cells were selected as the detection system. The control group was a blank control (DMSO). The test concentrations of the compounds were 0.5 μM and 5 μM. After treatment with the compounds for 18 h, the flow cytometry was used for detection. In the apoptosis result graph, the cells in quadrant E1 are necrotic cells, the cells in quadrant E2 are late apoptotic cells, the cells in quadrant E3 area represent live cells, and the cells in quadrant E4 are early apoptotic cells.

[4] = test system: HCC827 cells; test: as above; settings: for Total apoptosis rate (%): 18 h (control 10.8)
Procedure: as §7, §8

[5] = test system: H1975 cells; test: Cell cycle, PI staining, flow cytometry; settings: for G2/M phase (%): 18 h (control 14.52); for S phase (%): 18 h (control 30.25); for G0/G1 phase (%): 18 h (control 55.23)
Procedure: (§9) A variety of different cells in the logarithmic growth phase were inoculated evenly in a 6-well plate at a concentration of 1×10^6 cells/well, 2 ml for each well, and then incubated overnight. Then, different compounds were added, and each compound was set different concentrations. After 18 h, the cells were collected, resuspended in PBS, and centrifuged to remove the supernatant, to which was then added 0.5 ml of pre-cooled 75% absolute ethanol dropwise, followed by vortexing to mix the cells and standing overnight at 4° C. The solution was centrifuged at 1000 rpm/min for 4 min, and the supernatant was discarded. Propidium iodide staining solution was prepared by using 5.6 ml staining buffer, 210 μl propidium iodide staining solution (25×), and 56 μl RNaseA (2.5 mg/ml). 0.4 ml of propidium iodide staining solution was added to each tube to resuspend the cells, and then incubated for 30 min at room temperature in the dark. The cell suspension was gently pipetted to mix, filtered into a flow tube, and stored in the dark at 4° C. The cells were detected on the flow cytometer within 1 h.

[6] = test system: HCC827 cells; test: Cell cycle, PI staining, flow cytometry; settings: for G2/M phase (%): 18 h (control 24.99); for S phase (%): 18 h (control 33.66); for G0/G1 phase (%): 18 h (control 41.35)
Procedure: as §9

Structure (SMILES): C=CC(=O)Nc1cccc(Oc2nc(Nc3ccc(N4CCN(C)CC4)c([N+](=O)[O-])c3)nc3[nH]ccc23)c1 [Compound 5]
- inhibition of phosphorylation of EGFR-Tyr992 [1]: effectively inhibited
- inhibition of phosphorylation of Akt ([2]; H1975 cells): inhibited
- inhibition of phosphorylation of Akt ([2]; wild-type EGFR cells): much weaker inhibitory effects
- apoptosis-inducing effect (in words) [3]: certain apoptosis-inducing effects
- Total apoptosis rate (%) ([3]; 0.5 μM): 12.7%
- Total apoptosis rate (%) ([3]; 5 μM): 13.5%
- apoptosis-inducing effect (in words) [4]: certain apoptosis-inducing effects
- Total apoptosis rate (%) ([4]; 0.5 μM): 30.3%
- Total apoptosis rate (%) ([4]; 5 μM): 23.8%
- ratio of cells in the G0/G1 phase compared with the control group (in words) [5]: significantly higher
- G2/M phase (%) ([5]; 0.5 μM): 9.17%
- S phase (%) ([5]; 0.5 μM): 4.64%
- G0/G1 phase (%) ([5]; 0.5 μM): 86.20%
- G2/M phase (%) ([5]; 5 μM): 11.64%
- S phase (%) ([5]; 5 μM): 14.04%
- G0/G1 phase (%) ([5]; 5 μM): 74.33%
- ratio of cells in the G0/G1 phase compared with the control group (in words) [6]: significantly higher
- G2/M phase (%) ([6]; 0.5 μM): 9.72%
- S phase (%) ([6]; 0.5 μM): 16.99%
- G0/G1 phase (%) ([6]; 0.5 μM): 73.29%
- G2/M phase (%) ([6]; 5 μM): 14.12%
- S phase (%) ([6]; 5 μM): 4.36%
- G0/G1 phase (%) ([6]; 5 μM): 81.52%

Structure (SMILES): C=CC(=O)Nc1cccc(Oc2nc(Nc3ccc(N4CCN(C)CC4)c(N)c3)nc3[nH]ccc23)c1 [Compound 6]
- inhibition of phosphorylation of EGFR-Tyr992 [1]: effectively inhibited
- inhibition of phosphorylation of Akt ([2]; H1975 cells): inhibited
- inhibition of phosphorylation of Akt ([2]; wild-type EGFR cells): much weaker inhibitory effects
- apoptosis-inducing effect (in words) [3]: certain apoptosis-inducing effects
- Total apoptosis rate (%) ([3]; 0.5 μM): 16.4%
- Total apoptosis rate (%) ([3]; 5 μM): 16.1%
- apoptosis-inducing effect (in words) [4]: certain apoptosis-inducing effects
- Total apoptosis rate (%) ([4]; 0.5 μM): 28.7%
- Total apoptosis rate (%) ([4]; 5 μM): 23.6%
- ratio of cells in the G0/G1 phase compared with the control group (in words) [5]: significantly higher
- G2/M phase (%) ([5]; 0.5 μM): 10.49%
- S phase (%) ([5]; 0.5 μM): 5.28%
- G0/G1 phase (%) ([5]; 0.5 μM): 84.24%
- G2/M phase (%) ([5]; 5 μM): 13.18%
- S phase (%) ([5]; 5 μM): 10.59%
- G0/G1 phase (%) ([5]; 5 μM): 76.23%
- ratio of cells in the G0/G1 phase compared with the control group (in words) [6]: significantly higher
- G2/M phase (%) ([6]; 0.5 μM): 10.27%
- S phase (%) ([6]; 0.5 μM): 11.62%
- G0/G1 phase (%) ([6]; 0.5 μM): 78.11%
- G2/M phase (%) ([6]; 5 μM): 7.95%
- S phase (%) ([6]; 5 μM): 13.93%
- G0/G1 phase (%) ([6]; 5 μM): 78.12%

Reference: patent publication US20230075765A1, “PYRROLO[2,3-D]PYRIMIDINE DERIVATIVE TARGETING EGFR MUTATION, AS WELL AS THE PREPARATIVE METHOD AND THE USE THEREOF” (WEST CHINA HOSPITAL, SICHUAN UNIVERSITY, priority 2020, published 2023)
